Data as given in US6399617B1, “Use” (Biovitrum AB, priority 2000, dated 2002).

Columns and labels:
[1] = Determination of plasma concentration (free plasma concentration at steady state); format: in vivo, mouse; settings: ob/ob mice, subcutaneous continuous infusion
Protocol: The weights of the food pellets are measured at 5 p.m. and at […]. for two days before (baseline) and one day after the implantation of the osmotic minipumps. The weighing is performed with a computer assisted Mettler Toledo PR 5002 balance. Occasional spillage is corrected for. At the end of the study the animals are killed by neck dislocation and trunk blood sampled for later analysis of plasma drug concentrations.
The plasma sample proteins are precipitated with methanol, centrifuged and the supernatant is transferred to HPLC vials and injected into the liquid chromatography/mass spectrometric system. The mass spectrometer is set for electrospray positive ion mode and Multiple Reaction Monitoring (MRM with the transition m/z 316⇄221).
A linear regression analysis of the standards forced through the origin is used to calculate the concentrations of the unknown samples.

ob/ob mice = assay: Effect of compounds on food intake in ob/ob mice (15 h food consumption during subcutaneous minipump infusion); format: in vivo, mouse; settings: subcutaneous continuous infusion
Protocol: Obese (ob/ob) mouse is selected as the primary animal model for screening as this mutant mouse consumes high amounts of food resulting in a high signal to noise ratio. To further substantiate and compare efficacy data, the effect of the compounds on food consumption is also studied in wild type (C57BL/6J) mice. The amount of food consumed during 15 hours of infusion of compounds is recorded.
Male mice (obese C57BL/6JBom-Lep^ob and lean wild-type C57B1/6JBom; Bomholtsgaard, Denmark) 8-9 weeks with an average body weight of 50 g (obese) and 25 g (lean) are used in all the studies. The animals are housed singly in cages at 23±1° C., 40-60% humidity and have free access to water and standard laboratory chow. The 12/12-h light/dark cycle is set to lights off at 5 p.m. The animals are conditioned for at least one week before start of study.
The test compounds are dissolved in solvents suitable for each specific compound such as cyclodextrin, cyclodextrin/methane sulfonic acid, polyethylene glycol/methane sulfonic acid, or saline. Fresh solutions are made for each study. […] The purity of the test compounds is of analytical grade.
The animals are weighed at the start of the study and randomized based on body weight. Alzet osmotic minipumps (Model 2001D; infusion rate 8 μl/h) are used and loaded essentially as recommended by the Alzet technical information manual (Alza Scientific Products, 1997; Teeuwes and Yam, 1976). Continuous subcutaneous infusion with 24 hours duration is used. The minipumps are either filled with different concentrations of test compounds dissolved in vehicle or with only vehicle solution and maintained in vehicle pre-warmed to 37° C. […]
The weights of the food pellets are measured at 5 p.m. and at 8 p.m. for two days before (baseline) and one day after the implantation of the osmotic minipumps. […]
Food consumption for 15 hours is measured for the three consecutive days and the percentage of basal level values is derived for each animal from the day before and after treatment. The values are expressed as mean±SD and mean±SEM from eight animals per dose group. […]

For COc1ccc(NS(=O)(=O)c2sc3ccc(Cl)cc3c2C)cc1N1CCNCC1.Cl [SB-271046, 5-Chloro-3-methyl-benzo-[b]thiophene-2-sulphonic acid (4-methoxy-3-piperazin-yl-phenyl)-amide monohydrochloride], the “Free plasma concentration at the steady state giving the effect” value (shortened to “Free plasma concentration”) ([1]; 10 mg/kg/day) was 0.006, the “Free plasma concentration” value ([1]; 30 mg/kg/day) was 0.019 and the “Free plasma concentration” value ([1]; 50 mg/kg/day) was 0.034. For the same molecule, the “reduction of food intake compared to the basal level of food intake” value (shortened to “reduction of food intake”) (ob/ob mice; 10 mg/kg/day) was 45%, the “reduction of food intake” value (ob/ob mice; 30 mg/kg/day) was 60% and the “reduction of food intake” value (ob/ob mice; 50 mg/kg/day) was 77%.
